Assay results as given in US20220369639A1, “Fungicide Mixtures” (LANXESS Deutschland GmbH, priority 2019, published 2022).
Like-named read-outs stand apart in the source and are kept apart here.

How the values were obtained:
Type in all cases: cell-based
Aspergillus niger = experiment: Minimum Inhibitory Concentration (MIC) on nutrient agar petri dishes
Source text: (§1) The term synergism is used when the action of a combination of antimicrobial substances is being evaluated.
(§2) The synergism found for the mixtures according to the invention can be determined via the following mathematical mathematical formula (cf. F. C. Kull, P. C. Elisman, H. D.
(§3) Qa=amount of component A in the active substance mixture which achieves the desired effect, i. e. no microbial growth,
(§4) QA=amount of component A which, when used alone, suppresses the growth of the microorganisms,
(§5) Qb=amount of component B in the active substance mixture which suppresses the growth of the microorganisms,
(§6) QB=amount of component B which, when used alone, suppresses the growth of the microorganisms
(§7) If the sum of the ratios for a mixture Qa/QA+Qb/QB=1, additivity is indicated; if it is <1, synergism has occurred; a value of >1 is indicative of antagonism.
(§8) To determine the antimicrobial efficacy and synergy of active ingredients mixtures, the Minimum Inhibitory Concentration (MIC) of the active substances and their respective combinations were determined. The Minimum Inhibitory
(§9) Concentration of a given antimicrobial compound or mixture is the lowest concentration expressed in […] (ppm) that under defined in vitro conditions inhibits the growth of a given micro-organism (for example bacteria, mould fungi, yeasts). The growth of the microorganisms is observed on petri dishes containing a defined nutrient agar. In the case of fungi, typical strains according to this test design for example would be species like those as indicated in tables 1a) and 1b)

Fusarium solani = experiment: as above
Source text: as §1, §2, §3, §4, §5, §6, §7, §8, §9

[1] = test system: Fungi Mix composed of the standard ASTM G 21-09 species; experiment: Gypsum board mould resistance, ASTM G 21-09 (core protection); conditions: for Observed growth rating, Fungi Mix: facing papers not treated, 4 weeks at 28-30° C.
Source text: The fungicide mixtures as of the present invention and of the comparison example to be tested were made as follows: The respective actives were mixed in their respective weight ratio (see table 2) together with water and 1 wt. % dispersant Tristyrylphenol ethoxylate (in form of Soprophor® S 25), as thickener 0.1 wt. % of Xanthan gum and 1 wt. % wetting agent non-ionic EO/PO-Copolymer (in form of Pluronic 127 F), where the wt. % are based on the entire mixture and were homogenized with a high speed mixer (IKA Ultra Turrax Labor Dispergator) to give an aqueous suspension having a viscosity measured in accordance with CIPAC 192 method of 500-600 mPas and a particle size of the biocides of smaller than 30 μm measured in accordance with the CIPAC 187 method.
For examination of the antifungal performance of the inventive mixtures the various mixtures prepared above were tested. The testing directly made in gypsum boards provides realistic and practically relevant data for evaluation. To achieve such data, gypsum boards were produced in the laboratory. For this purpose, a typical slurry recipe as given below for board production is used.
The gypsum slurry is formed by mixing the dry components and the wet components together. The slurry is then mixed to achieve a homogeneous consistency. The fungicide mixtures as prepared above are then incorporated into the wet gypsum slurry respectively (total amount of actives in ppm see table 2) by adding and thoroughly mixing. For sandwiching the gypsum core, untreated cardboard (without fungicide) with a grammage of appr. 180 g/m^2 was used and after assembly of the plate the hand sheets are dried.
The mould resistance of the gypsum board samples was evaluated according to the test method ASTM G 21-09. Following to this method, the manufactured gypsum boards as described above and after having been cut to an adequate size are placed on an agarplate and superficially are spoiled with fungal spores for a determined period of time of at the most 4 weeks. The respective total amount of actives in ppm based in gypsum/plaster ([…]) can be seen in the table.
Spore suspensions are produced for each fungi (spore concentrations of approximately 10^6/ml). Organisms which are included in ASTM G 21 comprise Aspergillus niger (ATCC 9642), Aureobasidium pullulans (ATCC 15233) Chaetomium globosum (ATCC 6205), Gliocladium virens (ATCC 6459) and Penicillium pinophilium (ATCC 11797) (as pure culture but also as mixed inoculum), however any other fungi species known to be able to grow in gypsum boards may be used in addition or instead. Mineral agar (according to ASTM G21 of 2009) was used as growth media in the agar plates. Before inoculation the gypsum board hand sheets are cut into pieces of appr. 5×5 cm.
For every concentration level, 3 test pieces are used in the test. Each sample is placed in a separate petri dish and then inoculated with the fungi mixture. The samples are then incubated at 28-30° C. for 28 days. Pre-reading of the samples may be performed at approximately 10 days after inoculation. The activity of the treatments may be assessed visually, using a rating system of 0-4 for growth inhibition of fungal growth.
Results: The results as recorded after 4 weeks testing at 28-30° C. according to the requirements of test method ASTM G 21 are summarized in table 2.

| SMILES | MIC (Aspergillus niger) [ppm] | MIC (Aspergillus niger; read-out: MIC) [µg/mL] | MIC (Fusarium solani) [ppm] | MIC (Fusarium solani; read-out: MIC) [µg/mL] | Observed growth rating, Fungi Mix ([1]; 25 ppm on dry stucco in gypsum core) | Observed growth rating, Fungi Mix ([1]; 50 ppm on dry stucco in gypsum core) | Observed growth rating, Fungi Mix ([1]; 100 ppm on dry stucco in gypsum core) | Observed growth rating, Fungi Mix ([1]; 200 ppm on dry stucco in gypsum core) | Observed growth rating, Fungi Mix ([1]; 300 ppm on dry stucco in gypsum core) | Control of fungi growth on gypsum board (interpretation of Table 2) ([1]; tested concentration range 25-300 ppm, comparison with TBZ/PYM mixtures) |
| --- | --- | --- | --- | --- | --- | --- | --- | --- | --- | --- |
| Cc1cc(C)nc(Nc2ccccc2)n1 [PYM, pyrimethanil] | 500 | 250 | 1501 | 1000 | – | – | – | – | – | – |
| c1ccc2[nH]c(-c3cscn3)nc2c1 [TBZ, thiabendazole] | – | – | – | 250 | 4 (Heavy growth (60% to complete coverage)) | 4 (Heavy growth (60% to complete coverage)) | 4 (Heavy growth (60% to complete coverage)) | 4 (Heavy growth (60% to complete coverage)) | 3 (Medium growth (30 to 60%)) | not good enough |
